pEC50: −log10 of the molar value.

In assay [1] the target is hCB2 receptor (Homo sapiens, UniProt P34972). In words: Agonism of CB2 by detection of cAMP using HTRF. The class given is cell-based. Particulars: CHO cells stably expressing CB2 receptor; for pEC50: cAMP HTRF, forskolin-stimulated, average if tested more than once, read-out: hCB2 CHO EC50; for Emax: normalized to DMSO and maximal activation (5 nM CP55940). How it is done: (§1) Method for Assaying Agonism of CB1 or CB2 by Detection of cAMP Using Homogeneous Time-Resolved Fluorescence (HTRF®)
hCB2 receptor, sequence (P34972 whole entry): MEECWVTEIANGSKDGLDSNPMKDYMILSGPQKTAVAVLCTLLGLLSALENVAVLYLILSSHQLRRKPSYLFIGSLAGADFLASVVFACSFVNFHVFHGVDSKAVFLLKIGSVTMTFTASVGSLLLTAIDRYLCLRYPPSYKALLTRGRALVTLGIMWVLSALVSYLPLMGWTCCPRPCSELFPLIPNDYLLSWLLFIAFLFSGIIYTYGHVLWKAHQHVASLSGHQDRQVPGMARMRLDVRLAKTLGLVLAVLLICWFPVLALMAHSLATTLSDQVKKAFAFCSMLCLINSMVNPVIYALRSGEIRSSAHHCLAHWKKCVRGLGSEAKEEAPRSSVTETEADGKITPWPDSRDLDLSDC
(§2) CHOP-K1 cells stably expressing the CB1 receptor (PerkinElmer, ES-110-C) or the CB2 receptor (PerkinElmer, ES-111-CF) were seeded into 384 well white TC-treated plates (Greiner 781080) at 7000 cells per well in Ham's media (Gibco #31765-035) supplemented with 10% FBS (Gibco #16000-044) and 500 μg/mL Geneticin (Gibco #10131-027) and cultured overnight. The next day, plates were washed one time in assay buffer (HBSS with Ca^2+ and Mg^2+ (Corning #21-023-CV)+20 mM HEPES (Corning #25-060-Cl) and 0.01% BSA (Sigma A2153)). In a separate compound plate (Greiner 781201-906), 50 nL of test compound or DMSO was transferred using the Echo 550 (Labcyte), then 40 μL/well of assay buffer with 0.5 mM IBMX, 2 μM Forskolin (Sigma F3917), and 0.01% BSA was added. For the CB1 assay, assay buffer was dumped from the cell plate and fresh assay buffer containing 0.5 mM IBMX (Sigma I5679) was added at 30 μL/well, and the plate was incubated for 1 hr at 37° C., 5% CO2. Following the IBMX pre-treatment step, buffer was dumped from the cell plate, and 20 μL/well of the assay buffer with test compound was transferred into the cell plate with a subsequent incubation of 20 min at room temperature. Reagents for cAMP detection (cisbio 62AM4PEJ) were prepared and subsequently transferred to the cell plate at 20 μL/well. Following a 1 hr incubation at room temperature, the plate was read on the Pherastar FX (BMG, excitation 320 nm, detection at 620 nm (donor) and 665 nm (acceptor)). The ratio of signal at 665 nm/620 nm was determined for each well in the plate. For each assay day, a cAMP standard curve was run in parallel to assess the range of response and determine the concentration of cAMP in each well. Control wells (n=16 of each) with no activation of CB1 receptor (DMSO) and maximal activation (5 nM CP55940, Sigma) were used to normalize the data and to determine signal-to-background ratio and Z′. For the CB2 assay, conditions were as described above for the CB1 assay, except that the IBMX preincubation step was not used and that the 20 min compound incubation step occurred in the incubator at 37° C., 5% CO2.
(§3) EC50 values were calculated from dose response curves by nonlinear regression analysis using PRISM software.
(§4) Representative compounds of the present invention were tested according to the procedures described in Biological Example 1 above, with results as listed in Table 3, below. If a compound was tested more than once (due to multiple samples or batches), then the value listed in Table 3 below represents the average of the measured values.

Assay [2] concerns the target hCB1 receptor (Homo sapiens, UniProt P21554). In words: Agonism of CB1 by detection of cAMP using HTRF. The class given is cell-based. The following applies: CHO cells stably expressing CB1 receptor; for pEC50: cAMP HTRF, forskolin-stimulated, average if tested more than once, read-out: hCB1 CHO EC50; for Emax: normalized to DMSO and maximal activation (5 nM CP55940). The protocol: as §1, §2, §3, §4

hCB1 receptor, sequence (P21554 whole entry): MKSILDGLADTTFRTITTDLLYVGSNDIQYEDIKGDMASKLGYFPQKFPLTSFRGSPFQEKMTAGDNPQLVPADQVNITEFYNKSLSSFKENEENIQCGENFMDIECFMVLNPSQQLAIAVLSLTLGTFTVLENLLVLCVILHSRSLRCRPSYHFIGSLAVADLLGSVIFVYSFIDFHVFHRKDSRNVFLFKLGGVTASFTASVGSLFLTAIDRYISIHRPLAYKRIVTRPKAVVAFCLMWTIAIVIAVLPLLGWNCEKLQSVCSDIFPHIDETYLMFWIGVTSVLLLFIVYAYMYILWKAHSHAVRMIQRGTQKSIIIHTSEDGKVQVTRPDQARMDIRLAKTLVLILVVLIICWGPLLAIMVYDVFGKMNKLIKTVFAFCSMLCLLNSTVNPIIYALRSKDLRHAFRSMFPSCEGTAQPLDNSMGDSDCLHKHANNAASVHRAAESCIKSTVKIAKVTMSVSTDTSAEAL

With `CC(C)(C)c1nnc(-c2nn(-c3c[n+]([O-])ccn3)c3c2CC2CCC3O2)s1` (stereo not shown) [Compound 27, 3-(3-(5-(tert-butyl)-1,3,4-thiadiazol-2-yl)-5,6,7,8-tetrahydro-5,8-epoxycyclohepta[c]pyrazol-1(4H)-yl)pyrazine 1-oxide], in assay [1], the pEC50 was 10.22 and the Emax stood at 99%. In assay [2], the pEC50 was 6.89 and the Emax stood at 94.9%.

In the case of `CC(C)(C)NC(=O)c1nn(-c2c[n+]([O-])ccn2)c2c1CC1CCC2O1` (stereo not shown) [Compound 31, 3-(3-(tert-butylcarbamoyl)-5,6,7,8-tetrahydro-5,8-epoxycyclohepta[c]pyrazol-1(4H)-yl)pyrazine 1-oxide], in assay [1], the pEC50 is 9.48 and the Emax came out at 99.7%. In addition, in assay [2], the pEC50 is 5.84 and the Emax was 83.2%.

Consider `O=C(NC12CC3CC(CC1C3)C2)c1nn(-c2c[n+]([O-])ccn2)c2c1CC1CCC2O1` [Compound 21, 3-(3-(((2R,3as,5S,6as)-hexahydro-2,5-methanopentalen-3a(1H)-yl)carbamoyl)-5,6,7,8-tetrahydro-5,8-epoxycyclohepta[c]pyrazol-1(4H)-yl)pyrazine 1-oxide], for which, in assay [1], the pEC50 is 10.70 and the Emax is 99.9%. Also, in assay [2], the pEC50 is 7.55 and the maximal effect (Emax) worked out at 94.9%.

Regarding `O=C(NC[C@]12C[C@@H]3C[C@@H](C[C@@H](C3)C1)C2)c1nn(-c2ccc(F)cc2F)c2c1CC1CCC2O1` [Compound 42, N-(((3r,5r,7r)-adamantan-1-yl)methyl)-1-(2,4-difluorophenyl)-1,4,5,6,7,8-hexahydro-5,8-epoxycyclohepta[c]pyrazole-3-carboxamide], in assay [1], the pEC50 is 7.99 and the Emax was 77.1%. In addition, in assay [2], the pEC50 is 6.59 and the Emax turned out to be 98.2%.
